The record followed here is US20230348779A1, “FLUORESCENT COMPOUND AND FLUORESCENTLY LABELED BIOLOGICAL SUBSTANCE USING THE SAME” (FUJIFILM Corporation, priority 2021, published 2023).

Holding throughout (format): physicochemical
Data set [1] can be described thus: Evaluation of fluorescence quantum yield. The following applies: PBS solution (pH 7.4). Here is the method:
A PBS solution (pH 7.4) of the above compound was evaluated according to the method described in the following reference document.
“A Guide to Recording Fluorescence Quantum Yields” (a HORIBA Scientific document, available from https://www.horiba.com/fileadmin/uploads/Scientific/Documents/Fluorescence/quantumyields trad.pdf)
Regarding the fluorescence quantum yield, a high evaluation rank is highly preferable since the fluorescence quantum yield is excellent, and in the present test, it is preferable that the fluorescence quantum yield satisfies the evaluation rank “C” or higher from the viewpoint of practicality as the fluorescent compound.
—Evaluation Standards for Fluorescence Quantum Yield— • A: 0.5 or more • B: 0.3 or more and less than 0.5 • C: 0.1 or more and less than 0.3 • D: less than 0.1 • E: not evaluable due to low water solubility

Data set [2] is described as follows: Evaluation of maximum molar absorption coefficient. To be noted: PBS solution (pH 7.4). Here is the method: A PBS solution (pH 7.4) of the above compound was evaluated according to the method described in the following reference document. The unit of the maximum molar absorption coefficient in the following evaluation standard is mol^−1 Lcm^−1.
“TECH TIP #6 Extinction Coefficients” (a document from Thermo Scientific, Inc., available from https://assets.thermofisher.com/TFS-Assets/LSG/Application-Notes/TR0006-Extinction-coeffi cients.pdf)
Regarding the maximum molar absorption coefficient, a high evaluation rank is highly preferable since the maximum molar absorption coefficient is excellent, and in the present test, it is preferable that the maximum molar absorption coefficient satisfies the evaluation rank “C” or higher from the viewpoint of practicality as the fluorescent compound.
—Evaluation Standard for Maximum Molar Absorption Coefficient— • A: 100,000 or more • B: 50,000 or more and less than 100,000 • C: 10,000 or more and less than 50,000 • D: less than 10,000 • E: not evaluable due to low water solubility

Data set [3] in a line: Evaluation of water solubility. To be noted: PBS pH 7.4, 1% DMSO, 200 μM if completely dissolved, filtrate concentration by UHPLC; for solubility at 30 min: PBS pH 7.4 with 1% DMSO, aqueous buffer, kinetic from dmso stock. On the procedure:
5 μL of a DMSO solution having a concentration of 20 mM of the above compound (hereinafter, referred to as a sample) and 495 μL of PBS having a pH of 7.4 were added and mixed in a 1.5 mL Eppendorf tube and stirred with a multi-shaker MS300 (product name, AS ONE Corporation) at 2,000 rpm for 30 minutes. The obtained mixed solution was allowed to be left for 60 minutes with light shielding and then subjected to centrifugal precipitation (12,000 rpm, 5 minutes). For the filtrate filtered using a filter having a pore diameter of […], the sample concentration was measured with Nexera UHPLC [product name, manufactured by Shimadzu Corporation, column: Shim-pack XR-ODSII] (the sample concentration is 200 μM in a case where the sample is completely dissolved) and evaluated based on the following evaluation standards.
Regarding the water solubility, a high evaluation rank is highly preferable since the hydrophilicity is high, and in the present test, it is preferable that the water solubility satisfies the evaluation rank “C” or higher from the viewpoint of practicality as the fluorescent compound.
—Evaluation Standards for Water Solubility— • A: 100 μM or more • B: 10 μM or more and less than 100 μM • C: 1 μM or more and less than 10 μM • D: Less than 1 μM, or water solubility is low and thus concentration cannot be measured.

Data set [4] is described as follows: Evaluation of light resistance. To be noted: PBS pH 7.4, xenon lamp 22 mW/cm^2, exposure time until absorbance at absorption peak decreases by 20%. Here is the method: The compound synthesized above was dissolved in a PBS solution (pH 7.4) so that the absorbance at the absorption peak wavelength was 0.095 to 0.105. In a state where this solution was exposed using a merry-go-round type light irradiator (xenon lamp UXL-500D-O manufactured by Ushio Inc., HA-50 filter, Y44 filter, exposure intensity: 22 mW/cm^2 (in terms of 500 nm)), the absorbance at the absorption peak wavelength of each compound was measured over time with a spectrometer (Agilent 8453, manufactured by Agilent Technologies, Inc.). The absorbance at the absorption peak wavelength before light exposure was set to 100% and the light exposure time until the absorbance at this absorption peak wavelength decreases by 20% (the absorbance at the absorption peak wavelength reaches 80%) was measured. The results were evaluated based on the following evaluation standards.
A high evaluation rank is highly preferable since stability is kept for a long time, and in the present test, it is preferable that the light resistance satisfies the evaluation rank “B” or higher from the viewpoint of practicality as the fluorescent compound.
—Evaluation Standards for Light Resistance— • A: 100 hours or more • B: 50 hours or more and less than 100 hours • C: 25 hours or more and less than 50 hours • D: 2 hours or more and less than 25 hours • E: Less than 2 hours • F: Not evaluable due to low water solubility

Converted amounts (≈) assume the structure as drawn.

One may read the solubility as how much of the substance goes into solution per volume. A high value points to much dissolved substance. Consider `C=C[Si]1(C)C2=C/C(=N/C)C=CC2=C(c2c(F)cc(C(=O)O)cc2F)c2ccc(NC)cc21` (stereo not shown) [Compound (7)], for which, in data set [1], the Fluorescence quantum yield result was “B (0.3 or more and less than 0.5)”. For the same compound, the “Maximum molar absorption coefficient” value in data set [2] was “A (100,000 or more)”. For the same compound, the solubility at 30 min in data set [3] was 1 to 10 µM (≈ 0.449 to 4.49 µg/mL). For the same compound, in data set [4], the Light resistance entry is recorded as “A (100 hours or more)”.

With `C=C[Si]1(C)C2=CC(=[N+]3CC(F)C3)C=CC2=C(c2c(OC)cc(C(=O)[O-])cc2OC)c2ccc(N3CC(F)C3)cc21` (stereo not shown) [Compound (13)], the Fluorescence quantum yield result in data set [1] was “A (0.5 or more)”. Further, the “Maximum molar absorption coefficient” value in data set [2] is “B (50,000 or more and less than 100,000)”. This compound also displayed a solubility at 30 min in data set [3] of 1 to 10 µM (≈ 0.561 to 5.61 µg/mL).

For `C=C[Si]1(C)C2=C/C(=N/C)C=CC2=C(c2c(F)cc(C(=O)NCCOCCOCCOCCOCCC(=O)O)cc2F)c2ccc(NC)cc21` (stereo not shown) [Compound (9)], in data set [1], the Fluorescence quantum yield entry was “B (0.3 or more and less than 0.5)”. The “Maximum molar absorption coefficient” value in data set [2] is recorded as “A (100,000 or more)”. The solubility at 30 min in data set [3] lay within 10 to 100 µM (≈ 6.96 to 69.6 µg/mL). The Light resistance result in data set [4] is reported as “A (100 hours or more)”.

Take `C=C[Si]1(C)C2=CC(=[N+]3CCS(=O)(=O)CC3)C=CC2=C(c2c(F)cc(C(=O)[O-])cc2F)c2ccc(N3CCS(=O)(=O)CC3)cc21` (stereo not shown) [Compound (6)]: in data set [1], the Fluorescence quantum yield entry was “B (0.3 or more and less than 0.5)”; the “Fluorescence quantum yield (comparison in words)” value is recorded as “exhibits a better fluorescence quantum yield as compared with the compound (1)”. Also, the “Maximum molar absorption coefficient” value in data set [2] is given as “A (100,000 or more)”. For the same compound, the solubility at 30 min in data set [3] was 1 to 10 µM (≈ 0.657 to 6.57 µg/mL). For the same compound, in data set [4], the Light resistance entry is “A (100 hours or more)”.

For the compound `C=C[Si]1(C)C2=CC(=[N+](C)C)C=CC2=C(c2ccc(C(=O)[O-])cc2F)c2ccc(N(C)C)cc21` (stereo not shown) [Compound (2)], the Fluorescence quantum yield entry in data set [1] is “B (0.3 or more and less than 0.5)”. Besides, in data set [2], the “Maximum molar absorption coefficient” value is “A (100,000 or more)”. In addition, in data set [3], the solubility at 30 min was in the range of 1 to 10 µM (≈ 0.459 to 4.59 µg/mL). The Light resistance entry in data set [4] is “A (100 hours or more)”.

In the case of `C=C[Si]1(C)C2=CC(=[N+](C)C)C=CC2=C(c2sc(C(=O)[O-])cc2C)c2ccc(N(C)C)cc21` (stereo not shown) [Compound (5)], the Fluorescence quantum yield result in data set [1] was “D (less than 0.1)”. In addition, the “Maximum molar absorption coefficient” value in data set [2] is recorded as “A (100,000 or more)”. The compound further displayed a solubility at 30 min in data set [3] of 1 to 10 µM (≈ 0.461 to 4.61 µg/mL). Moreover, the Light resistance result in data set [4] was “A (100 hours or more)”.

Turning to `C=C[Si]1(C)C2=C/C(=[N+](\C)CC(F)(F)F)C=CC2=C(c2c(OC)cc(C(=O)[O-])cc2OC)c2ccc(N(C)CC(F)(F)F)cc21` (stereo not shown) [Compound (15)], in data set [1], the Fluorescence quantum yield result is “A (0.5 or more)” and the “Fluorescence quantum yield (comparison in words)” value was “exhibits a better fluorescence quantum yield as compared with the compound (4)”. Moreover, the “Maximum molar absorption coefficient” value in data set [2] was “C (10,000 or more and less than 50,000)”. The compound also showed a solubility at 30 min in data set [3] of 1 to 10 µM (≈ 0.637 to 6.37 µg/mL).

In the case of `C=C[Si]1(C)C2=C/C(=[N+]3\CCC(F)C3)C=CC2=C(c2c(OC)cc(C(=O)[O-])cc2OC)c2ccc(N3CCC(F)C3)cc21` (stereo not shown) [Compound (14)], in data set [1], the Fluorescence quantum yield result is reported as “A (0.5 or more)”. For the same compound, the “Maximum molar absorption coefficient” value in data set [2] is “B (50,000 or more and less than 100,000)”. Besides, in data set [3], the solubility at 30 min fell in the range of 1 to 10 µM (≈ 0.589 to 5.89 µg/mL).

For `C=C[Si]1(C)C2=C/C(=N/C)C=CC2=C(c2sc(C(=O)O)cc2C)c2ccc(NC)cc21` (stereo not shown) [Compound (8)], the Fluorescence quantum yield entry in data set [1] was “C (0.1 or more and less than 0.3)”. For the same compound, the “Maximum molar absorption coefficient” value in data set [2] is “B (50,000 or more and less than 100,000)”. In data set [3], this compound returned a solubility at 30 min of 1 to 10 µM (≈ 0.433 to 4.33 µg/mL). In data set [4], the Light resistance result is reported as “A (100 hours or more)”.

As to `C=C[Si]1(C)C2=CC(=[N+](C)C)C=CC2=C(c2c(OC)cc(C(=O)[O-])cc2OC)c2ccc(N(C)C)cc21` (stereo not shown) [Compound (4)], in data set [1], the Fluorescence quantum yield entry is “B (0.3 or more and less than 0.5)”. Further, the “Maximum molar absorption coefficient” value in data set [2] was “A (100,000 or more)”. This compound had a solubility at 30 min in data set [3] of 1 to 10 µM (≈ 0.501 to 5.01 µg/mL). For the same compound, in data set [4], the Light resistance entry is recorded as “A (100 hours or more)”.

For AlexaFluor647, the Fluorescence quantum yield result in data set [1] was “B (0.3 or more and less than 0.5)”. The “Maximum molar absorption coefficient” value in data set [2] is on record as “A (100,000 or more)”. Also, the Water solubility result in data set [3] is listed as “A (100 μM or more)”. Also, in data set [4], the Light resistance entry was “D (2 hours or more and less than 25 hours)”.
